For data set [1] the following is noted: background statement; cited from earlier work.
The nature of data set [2]: pH measurement of oral solutions diluted with water 1:10 and of sodium sulindac solution. Type of data set: physicochemical. An excerpt: The results are shown below.
Data set [3] is described as follows: Stability, hygroscopicity and crystallization of salts and compositions. The data set is classed as physicochemical.

As to `CC1=C(CC(=O)O)c2cc(F)ccc2/C1=C\c1ccc([S+](C)[O-])cc1` (stereo not drawn) [Sulindac], in data set [1], the “absorption from the gastrointestinal tract” value is given as “erratically absorbed”.
Turning to `CC1=C(CC(=O)O)c2cc(F)ccc2/C1=C\c1ccc([S+](C)[O-])cc1` (stereo not drawn) [calcium sulindac], the “pH of solutions, in words” value in data set [2] (compared with sodium sulindac solutions) is “acceptable for formulation”. Also, the stability result in data set [3] is “good stability”.
With `CC1=C(CC(=O)O)c2cc(F)ccc2/C1=C\c1ccc([S+](C)[O-])cc1` (stereo not drawn) [sodium sulindac], the “pH of aqueous solution” value in data set [2] (aqueous solution, 4%) was determined as 10.99. Further, the hygroscopicity result in data set [3] is “strongly hygroscopic”. In addition, the crystallization result in data set [3] (in our hands) was “difficult to crystallize”.

Values taken from US4880835A, “Oral liquid pharmaceutical compositions of sulindac” (Formulations Development Labs, Inc., priority 1988, dated 1989).
